Data taken from ChEMBL document CHEMBL1782017, “Synthesis and biological evaluation of new flavonoid fatty acid esters with anti-adipogenic and enhancing glucose consumption activities” (2011).

Experiments:
3T3-L1 [1] = assay: Glucose consumption in differentiated mouse 3T3L1 cells in low-glucose medium at 50 ug/ml after 24 hrs by glucose-oxidase method (Rvb =2.41 +/- 0.22 mmol/L); type: functional
3T3-L1 [2] = assay: Glucose consumption in differentiated mouse 3T3L1 cells in low-glucose medium at 100 ug/ml after 24 hrs by glucose-oxidase method (Rvb =2.35 +/- 0.19 mmol/L); type: functional
3T3-L1 [3] = assay: Glucose consumption in differentiated mouse 3T3L1 cells in low-glucose medium after 24 hrs by glucose-oxidase method; type: functional, cell-based
3T3-L1 [4] = assay: Glucose consumption in differentiated mouse 3T3L1 cells in high-glucose medium after 24 hrs by glucose-oxidase method; type: functional, cell-based
3T3-L1 [5] = assay: Glucose consumption in differentiated mouse 3T3L1 cells in high-glucose medium at 50 ug/ml after 24 hrs by glucose-oxidase method (Rvb =3.06 +/- 0.29 mmol/L); type: functional
3T3-L1 [6] = assay: Antiproliferative activity against mouse 3T3L1 cells after 48 hrs by MTT assay; type: functional; set-up: concentration or dose not given beside the values
3T3-L1 [7] = assay: Inhibition of adipogenesis in mouse 3T3L1 cells at 100 umol/L after 8 days by Oil red O-staining; type: functional; conditions: 3T3-L1, 192 h
3T3-L1 [8] = assay: Glucose consumption in differentiated mouse 3T3L1 cells in high-glucose medium at 100 ug/ml after 24 hrs by glucose-oxidase method (Rvb =3.12 +/- 0.32 mmol/L); type: functional
3T3-L1 [9] = assay: Increase in glucose consumption in differentiated mouse 3T3L1 cells in low-glucose medium at 100 ug/ml after 24 hrs by glucose-oxidase method relative to control; type: functional
3T3-L1 [10] = assay: Increase in glucose consumption in differentiated mouse 3T3L1 cells in low-glucose medium at 50 ug/ml after 24 hrs by glucose-oxidase method relative to control; type: functional
3T3-L1 [11] = assay: Increase in glucose consumption in differentiated mouse 3T3L1 cells in high-glucose medium at 100 ug/ml after 24 hrs by glucose-oxidase method relative to control; type: functional

CCCCCCCC/C=C\CCCCCCCC(=O)Oc1ccc2c(c1)C(=O)/C(=C/c1ccc(OC)cc1)O2
Activity (3T3-L1 [1]): 4.48 mmol/L | Activity (3T3-L1 [2]): 5.05 mmol/L | Activity (3T3-L1 [3]): Dose-dependent effect | Activity (3T3-L1 [4]): Dose-dependent effect | Activity (3T3-L1 [5]): 4.91 mmol/L | Activity (3T3-L1 [6]): 17.69% | inhibition at 100 µM (3T3-L1 [7]): 11.7% | Activity (3T3-L1 [8]): 5.67 mmol/L

CCCCCCCC/C=C\CCCCCCCC(=O)Oc1ccc2c(c1)O/C(=C\c1ccc(OC)cc1)C2=O
Activity (3T3-L1 [1]): 4.94 mmol/L | Activity (3T3-L1 [2]): 5.61 mmol/L | Activity (3T3-L1 [3]): Dose-dependent effect | fold change (FC) (3T3-L1 [9]): 2.39 | Activity (3T3-L1 [4]): Dose-dependent effect | Activity (3T3-L1 [5]): 5.48 mmol/L | Activity (3T3-L1 [6]): 22.18% | inhibition at 100 µM (3T3-L1 [7]): 14.3% | fold change (FC) (3T3-L1 [10]): 2.39 | Activity (3T3-L1 [8]): 6.05 mmol/L | fold change (FC) (3T3-L1 [11]): 2.39

C=CCCCCCCCCC(=O)Oc1ccc2c(c1)C(=O)/C(=C/c1cccc([N+](=O)[O-])c1)O2
Activity (3T3-L1 [6]): -8.37%

C=CCCCCCCCCC(=O)Oc1ccc2c(c1)C(=O)/C(=C/c1ccc(OC)cc1)O2
Activity (3T3-L1 [6]): -2.09%

CCCCCCCCCCCCCCCCCC(=O)Oc1ccc2c(c1)C(=O)/C(=C/c1ccc(OC)cc1)O2
Activity (3T3-L1 [6]): -10.93%

C=CCCCCCCCCC(=O)Oc1ccc2c(=O)c(Cc3ccc(OC)cc3)coc2c1
Activity (3T3-L1 [6]): -17.45%

CCCCCCCCCCCCCCCCCC(=O)Oc1ccc2c(c1)C(=O)/C(=C/c1ccc(Br)cc1)O2
Activity (3T3-L1 [6]): 5.02%

CCCCC/C=C\C=C\CCCCCCCCC(=O)Oc1ccc2c(c1)C(=O)/C(=C/c1ccc(OC)cc1)O2
Activity (3T3-L1 [6]): -24.96% | inhibition at 100 µM (3T3-L1 [7]): 22.6%

CCCCC/C=C\C=C\CCCCCCCCC(=O)Oc1ccc2c(c1)C(=O)/C(=C/c1cccc(Cl)c1)O2
Activity (3T3-L1 [6]): -11.46%

C=CCCCCCCCCC(=O)Oc1ccc2c(c1)C(=O)/C(=C/c1ccc(Br)cc1)O2
Activity (3T3-L1 [6]): 1.25%

CCCCCCCCCCCCCCCCCC(=O)Oc1ccc2c(c1)C(=O)/C(=C/c1cccc(OC)c1)O2
Activity (3T3-L1 [6]): -10.94%

CCCCCCCC/C=C\CCCCCCCC(=O)Oc1ccc2c(c1)C(=O)/C(=C/c1ccc(OC)c(OC)c1)O2
Activity (3T3-L1 [6]): 12.53% | inhibition at 100 µM (3T3-L1 [7]): 0%

CCCCCCCCCCCCCCCC(=O)Oc1ccc2c(c1)C(=O)/C(=C/c1ccc(F)cc1)O2
Activity (3T3-L1 [6]): -0.47%

CCCCC/C=C\C=C\CCCCCCCCC(=O)Oc1ccc2c(c1)C(=O)/C(=C/c1cccc(OC)c1)O2
Activity (3T3-L1 [6]): 6.45%

CCCCC/C=C\C=C\CCCCCCCCC(=O)Oc1ccc2c(c1)C(=O)/C(=C/c1ccc(OC)c(OC)c1)O2
Activity (3T3-L1 [1]): 2.99 mmol/L | Activity (3T3-L1 [2]): 3.85 mmol/L | Activity (3T3-L1 [3]): Dose-dependent effect | Activity (3T3-L1 [4]): Dose-dependent effect | Activity (3T3-L1 [5]): 3.71 mmol/L | Activity (3T3-L1 [6]): 20.72% | inhibition at 100 µM (3T3-L1 [7]): 1.88% | Activity (3T3-L1 [8]): 5.08 mmol/L

CCCCCCCC/C=C\CCCCCCCC(=O)Oc1ccc2c(c1)C(=O)/C(=C/c1cccc([N+](=O)[O-])c1)O2
Activity (3T3-L1 [1]): 2.93 mmol/L | Activity (3T3-L1 [2]): 3.47 mmol/L | Activity (3T3-L1 [5]): 3.35 mmol/L | Activity (3T3-L1 [6]): 17.55% | inhibition at 100 µM (3T3-L1 [7]): 15.6% | Activity (3T3-L1 [8]): 3.96 mmol/L

CCCCCCCCCCCCCCCCCC(=O)Oc1ccc2c(c1)C(=O)/C(=C/c1cccc(Cl)c1)O2
Activity (3T3-L1 [6]): -0.06%

CCCCCCCCCCCCCCCCCC(=O)Oc1ccc2c(c1)C(=O)/C(=C/c1ccc(F)cc1)O2
Activity (3T3-L1 [6]): -9.45%

CCCCCCCCCCCCCCCC(=O)Oc1ccc2c(c1)C(=O)/C(=C/c1cccc(OC)c1)O2
Activity (3T3-L1 [6]): -20.26%

CCCCCCCCCCCCCCCCCC(=O)Oc1ccc2c(c1)C(=O)/C(=C/c1cccc([N+](=O)[O-])c1)O2
Activity (3T3-L1 [6]): -5.03%

CCCCC/C=C\C=C\CCCCCCCCC(=O)Oc1ccc2c(c1)C(=O)/C(=C/c1ccc(Br)cc1)O2
Activity (3T3-L1 [6]): 11.09%

CCCCC/C=C\C=C\CCCCCCCCC(=O)Oc1ccc2c(=O)c(Cc3ccc(OC)cc3)coc2c1
Activity (3T3-L1 [6]): -4.37%

C=CCCCCCCCCC(=O)Oc1ccc2c(c1)C(=O)/C(=C/c1ccc(OC)c(OC)c1)O2
Activity (3T3-L1 [6]): -22.17%

CCCCCCCCCCCCCCCCCC(=O)Oc1ccc2c(c1)O/C(=C\c1ccc(OC)cc1)C2=O
Activity (3T3-L1 [6]): 11.43% | inhibition at 100 µM (3T3-L1 [7]): 0%

CCCCCCCCCCCCCCCC(=O)Oc1ccc2c(c1)C(=O)/C(=C/c1ccc(OC)c(OC)c1)O2
Activity (3T3-L1 [6]): -3.72%

C=CCCCCCCCCC(=O)Oc1ccc2c(c1)C(=O)/C(=C/c1cccc(Cl)c1)O2
Activity (3T3-L1 [1]): 2.88 mmol/L | Activity (3T3-L1 [2]): 3.56 mmol/L | Activity (3T3-L1 [3]): Dose-dependent effect | Activity (3T3-L1 [4]): Dose-dependent effect | Activity (3T3-L1 [5]): 3.86 mmol/L | Activity (3T3-L1 [6]): 57.4% | inhibition at 100 µM (3T3-L1 [7]): 28.7% | Activity (3T3-L1 [8]): 4.49 mmol/L

CCCCCCCCCCCCCCCC(=O)Oc1ccc2c(c1)C(=O)/C(=C/c1ccc(Br)cc1)O2
Activity (3T3-L1 [6]): 1.05%

C=CCCCCCCCCC(=O)Oc1ccc2c(c1)C(=O)/C(=C/c1ccc(F)cc1)O2
Activity (3T3-L1 [1]): 4.41 mmol/L | Activity (3T3-L1 [2]): 5.45 mmol/L | Activity (3T3-L1 [3]): Dose-dependent effect | Activity (3T3-L1 [4]): Dose-dependent effect | Activity (3T3-L1 [5]): 5.16 mmol/L | Activity (3T3-L1 [6]): 16.67% | inhibition at 100 µM (3T3-L1 [7]): 25.4% | Activity (3T3-L1 [8]): 5.85 mmol/L

C=CCCCCCCCCC(=O)Oc1ccc2c(c1)O/C(=C\c1ccc(OC)cc1)C2=O
Activity (3T3-L1 [6]): -1.39%

CCCCCCCCCCCCCCCCCC(=O)Oc1ccc2c(=O)c(Cc3ccc(OC)cc3)coc2c1
Activity (3T3-L1 [6]): -31.87% | inhibition at 100 µM (3T3-L1 [7]): 1.95%

C=CCCCCCCCCC(=O)Oc1ccc2c(c1)C(=O)/C(=C/c1cccc(OC)c1)O2
Activity (3T3-L1 [6]): 0.21%

CCCCCCCC/C=C\CCCCCCCC(=O)Oc1ccc2c(c1)C(=O)/C(=C/c1cccc(Cl)c1)O2
Activity (3T3-L1 [6]): 20.76% | inhibition at 100 µM (3T3-L1 [7]): 0%

CCc1ccc(CCOc2ccc(CC3SC(=O)NC3=O)cc2)nc1 (stereo unspecified) [PIOGLITAZONE]
Activity (3T3-L1 [1]): 5.51 mmol/L | Activity (3T3-L1 [2]): 6.75 mmol/L | Activity (3T3-L1 [3]): Dose-dependent effect | Activity (3T3-L1 [4]): Dose-dependent effect | Activity (3T3-L1 [5]): 7.36 mmol/L | Activity (3T3-L1 [8]): 8.15 mmol/L

CCCCCCCC/C=C\CCCCCCCC(=O)Oc1ccc2c(=O)c(Cc3ccc(OC)cc3)coc2c1
Activity (3T3-L1 [1]): 2.71 mmol/L | Activity (3T3-L1 [2]): 3.38 mmol/L | Activity (3T3-L1 [3]): Dose-dependent effect | Activity (3T3-L1 [4]): Dose-dependent effect | Activity (3T3-L1 [5]): 3.49 mmol/L | Activity (3T3-L1 [6]): 1.88% | inhibition at 100 µM (3T3-L1 [7]): 47.5% | Activity (3T3-L1 [8]): 4.23 mmol/L

CCCCCCCC/C=C\CCCCCCCC(=O)Oc1ccc2c(c1)C(=O)/C(=C/c1cccc(OC)c1)O2
Activity (3T3-L1 [6]): -5.41% | inhibition at 100 µM (3T3-L1 [7]): 0%

CCCCCCCC/C=C\CCCCCCCC(=O)Oc1ccc2c(c1)C(=O)/C(=C/c1ccc(Br)cc1)O2
Activity (3T3-L1 [6]): -6.62% | inhibition at 100 µM (3T3-L1 [7]): 16.6%

CCCCC/C=C\C=C\CCCCCCCCC(=O)Oc1ccc2c(c1)C(=O)/C(=C/c1cccc([N+](=O)[O-])c1)O2
Activity (3T3-L1 [1]): 3.64 mmol/L | Activity (3T3-L1 [2]): 4.29 mmol/L | Activity (3T3-L1 [3]): Dose-dependent effect | Activity (3T3-L1 [4]): Dose-dependent effect | Activity (3T3-L1 [5]): 4.21 mmol/L | Activity (3T3-L1 [6]): -12.06% | inhibition at 100 µM (3T3-L1 [7]): 15.1% | Activity (3T3-L1 [8]): 4.95 mmol/L

CCCCCCCC/C=C\CCCCCCCC(=O)Oc1ccc2c(=O)c(-c3ccc(OC)cc3)coc2c1 [OLEOYL FORMONONETIN]
Activity (3T3-L1 [1]): 5.01 mmol/L | Activity (3T3-L1 [2]): 6.95 mmol/L | Activity (3T3-L1 [3]): Dose-dependent effect | Activity (3T3-L1 [4]): Dose-dependent effect | Activity (3T3-L1 [5]): 6.52 mmol/L | Activity (3T3-L1 [6]): 10.91% | inhibition at 100 µM (3T3-L1 [7]): 2.52% | Activity (3T3-L1 [8]): 7.49 mmol/L

CCCCCCCC/C=C\CCCCCCCC(=O)Oc1ccc2c(c1)C(=O)/C(=C/c1ccc(F)cc1)O2
Activity (3T3-L1 [1]): 3.81 mmol/L | Activity (3T3-L1 [2]): 4.35 mmol/L | Activity (3T3-L1 [3]): Dose-dependent effect | Activity (3T3-L1 [4]): Dose-dependent effect | Activity (3T3-L1 [5]): 4.07 mmol/L | Activity (3T3-L1 [6]): 22.57% | inhibition at 100 µM (3T3-L1 [7]): 9.38% | Activity (3T3-L1 [8]): 4.82 mmol/L

CCCCCCCCCCCCCCCC(=O)Oc1ccc2c(c1)C(=O)/C(=C/c1ccc(OC)cc1)O2
Activity (3T3-L1 [6]): 1.19%

CCCCC/C=C\C=C\CCCCCCCCC(=O)Oc1ccc2c(c1)C(=O)/C(=C/c1ccc(F)cc1)O2
Activity (3T3-L1 [6]): 14.2% | inhibition at 100 µM (3T3-L1 [7]): 0%

CCCCCCCCCCCCCCCCCC(=O)Oc1ccc2c(c1)C(=O)/C(=C/c1ccc(OC)c(OC)c1)O2
Activity (3T3-L1 [6]): -3.84%
